Legend:
MDA-MB-231 cells [1] = experiment: DNA content flow cytometry (propidium iodide): G2/M arrest and aneuploidy; type: cell-based, human; conditions: 5 μg/ml oligomycin, 5 μM FCCP or 10 μg/ml antimycin A, 24 h
[2] = Synergy with cisplatin, experiments not described
MDA-MB-231 cells [3] = experiment: Caspase-3/7 activity assay (apoptosis); type: cell-based, human; conditions: 20 h
Method: FIG. 18. […] Multidrug-resistant MDA-MB-231 breast carcinoma cells were treated with increasing doses of mdivi-1 alone, a series of anticancer drugs alone, or the combination of increasing doses of anticancer drugs with 20 μM mdivi-1 for 20 h. Apoptosis was determined by measuring the activity of caspase-3/7. The drugs tested were platinum agent, cisplatin; antifolate agent, methotrexate; topoisomerase II inhibitor, etoposide; cytidine analog, gemcitabine; pyrimidine analog, 5-FU; alkylating agents, cyclophosphamide, MMS and MNNG; DNA crosslinking agent, MMC; DNA intercalating agent, doxorubicin; and antimitotic drug, paclitaxel.
FIG. 21A-F. Mdivi-1 enhances cisplatin sensitivity through Drp1-independent mechanisms. (A) Confirmation of the depletion of Drp1 in Drp1 knockout SV40-transformed MEF cells by western blot. (B) Drp1 wild-type (Drp1+/+) and knockout (Drp1−/−) MEF cells were treated as indicated for 20 h, and the number of apoptotic cells was determined by antibody recognizing cleaved caspase-3. […] (C) Drp1 wild-type and knockout MEF cells were treated with mdivi-1 for 24 h, and the cell number were determined by CyQuant assay. (D) OCR was measured after 1 h treatment of Drp1 wild-type and knockout MEF cells with DMSO or mdivi-1. (E) The combination effect of cisplatin with four analogs of mdivi-1. […]

Drp1 = conditions: as said in Cassidy-Stone et al., Dev Cell 14:193-204; cited from earlier work

**Q.** For antimycin A, which “G2/M cell cycle arrest and aneuploidy” value (MDA-MB-231 cells [1]) is on record?
**A.** did not induce G2/M cell cycle arrest and aneuploidy

**Q.** With `O=C(N/N=C/c1ccc(O)c(O)c1)c1cc2ccccc2cc1O` [Dynasore] as the molecule, how does the “synergistic effect with cisplatin” value [2] read?
**A.** have not demonstrated a synergistic effect

**Q.** Which “G2/M cell cycle arrest and aneuploidy” value (MDA-MB-231 cells [1]) does the source give for `N#CC(C#N)=NNc1ccc(OC(F)(F)F)cc1` [FCCP] here?
**A.** did not induce G2/M cell cycle arrest and aneuploidy

**Q.** With `C[C@]1(c2nc3c(C(N)=O)cccc3[nH]2)CCCN1` [ABT-888] as the molecule, how does the “apoptosis, alone and in combination with cisplatin” value (MDA-MB-231 cells [3]; series doses) read?
**A.** resistant

**Q.** Which results are given for `COc1cc(-n2c(SC)nc3ccccc3c2=O)c(Cl)cc1Cl` [compound F]?
**A.** combination effect with cisplatin in enhancing apoptosis (MDA-MB-231 cells [3]; 20 μM of agents alone or in combination with cisplatin): abolished the synergism with cisplatin; efficacy in inhibiting Drp1 relative to mdivi-1 (Drp1): poor efficacy

**Q.** Which “G2/M cell cycle arrest and aneuploidy” value (MDA-MB-231 cells [1]) does the source give for `CC[C@H]1/C=C/C=C/C[C@@H](C)[C@H](O)[C@@](C)(O)C(=O)[C@@H](C)[C@H](O)[C@@H](C)C(=O)[C@@H](C)[C@H](O)[C@@H](C)/C=C/C(=O)O[C@@H]2[C@H](C)[C@H](CC1)O[C@]1(CC[C@H](C)[C@H](C[C@@H](C)O)O1)[C@H]2C` [oligomycin] here?
**A.** did not induce G2/M cell cycle arrest and aneuploidy
